Values joined by “and” are separate entries in the source; they are usually repeats but may differ in a detail not shown here. Equal values may be shown once. Toxic doses and inconclusive results are not listed.

The values that follow come from PubChem BioAssay AID328 (DTP/NCI, 2004).

The experiment concerns BDF1 mice, P388 leukemia ip, median survival T/C. Put plainly: NCI In Vivo Anticancer Drug Screen. Data for tumor model P388 Leukemia (intraperitoneal) in B6D2F1 (BDF1) mice. The note with it: endpoint: median survival time, higher = longer survival. The method, boiled down:
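Mice carrying the transplantable tumour receive compound or vehicle. Survival is followed in each arm, and the treated measure is divided by the vehicle measure.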

Where [1] appears, read: dose: 50.0 mg/kg/injection, schedule: Q01DX009 (ip), vehicle: saline with Tween-80.
The mark [2] stands for this setting: dose: 100.0 mg/kg/injection, schedule: Q01DX009 (ip), vehicle: saline with Tween-80.
[3] abbreviates: dose: 200.0 mg/kg/injection, schedule: Q01DX009 (ip), vehicle: saline with Tween-80.
The mark [4] stands for this setting: dose: 100.0 mg/kg/injection, schedule: Q04DX003 (ip), vehicle: saline with Tween-80.
[5] abbreviates: dose: 200.0 mg/kg/injection, schedule: Q04DX003 (ip), vehicle: saline with Tween-80.
Setting [6] is: dose: 50.0 mg/kg/injection, schedule: Q04DX003 (ip), vehicle: saline.
[7] abbreviates: dose: 100.0 mg/kg/injection, schedule: Q04DX003 (ip), vehicle: saline.

In the case of `O=C(c1ccncc1)c1c(Cc2ccccc2)ccc2ccccc12`, the T/C under setting [1] is 92 % of control; the T/C under setting [2] was 96 % of control; the T/C under setting [3] was 90 % of control; the T/C (dose: 400.0 mg/kg/injection, schedule: Q01DX009 (ip), vehicle: saline with Tween-80) is 92 % of control.
Take `CC[C@]12CN3CCc4c([nH]c5ccccc45)[C@@](C(=O)OC)(c4cc5c(cc4OC)N(C)[C@H]4[C@@](O)(C(=O)OC)[C@H](OC(C)=O)[C@]6(CC)C=CCN7CC[C@]54[C@@H]76)CC(C3)[C@H]1O2` (some centres not stated): the T/C (dose: 0.5 mg/kg/injection, schedule: Q01DX009 (ip), vehicle: saline) was 155 % of control; the T/C (dose: 1.0 mg/kg/injection, schedule: Q01DX009 (ip), vehicle: saline) was 160 % of control; the T/C (dose: 1.5 mg/kg/injection, schedule: Q01DX009 (ip), vehicle: Klucel (hydroxypropylcellulose) (HPC)) was 124 % of control; the T/C (dose: 3.0 mg/kg/injection, schedule: Q01DX009 (ip), vehicle: Klucel (hydroxypropylcellulose) (HPC)) is 162 % of control; the T/C (dose: 3.0 mg/kg/injection, schedule: Q01DX009 (ip), vehicle: saline) is 180 % of control; the T/C (dose: 3.9 mg/kg/injection, schedule: Q01DX009 (ip), vehicle: saline) is 160 % of control. Moreover, the T/C was 170 % of control and 171 % of control (dose: 6.0 mg/kg/injection, schedule: Q01DX009 (ip), vehicle: Klucel (hydroxypropylcellulose) (HPC)); 225 % of control (dose: 6.0 mg/kg/injection, schedule: Q01DX009 (ip), vehicle: saline with Tween-80); 234 % of control and 200 % of control (dose: 6.0 mg/kg/injection, schedule: Q01DX009 (ip), vehicle: saline); 95 % of control (dose: 9.0 mg/kg/injection, schedule: Q01DX009 (ip), vehicle: saline with Tween-80); 252 % of control (dose: 9.0 mg/kg/injection, schedule: Q01DX009 (ip), vehicle: saline); 186 % of control and 216 % of control (dose: 12.0 mg/kg/injection, schedule: Q01DX009 (ip), vehicle: Klucel (hydroxypropylcellulose) (HPC)). Further, the T/C by setting is: (dose: 12.0 mg/kg/injection, schedule: Q01DX009 (ip), vehicle: saline) 240 % of control; (dose: 5.0 micrograms/kg/injection, schedule: Q01DX009 (ip), vehicle: saline) 104 % of control; (dose: 10.0 micrograms/kg/injection, schedule: Q01DX009 (ip), vehicle: saline) 109 % of control; (dose: 30.0 micrograms/kg/injection, schedule: Q01DX009 (ip), vehicle: saline) 109 % of control; (dose: 60.0 micrograms/kg/injection, schedule: Q01DX009 (ip), vehicle: saline) 100 % of control; (dose: 120.0 micrograms/kg/injection, schedule: Q01DX009 (ip), vehicle: saline) 95 % of control.
Regarding `Oc1ccc(Nc2c3ccccc3nc3c2ccc2ccccc23)cc1CN(CCCl)CCCl`, the T/C by setting is: (dose: 0.08 mg/kg/injection, schedule: Q01DX009 (ip), vehicle: saline) 100 % of control; (dose: 0.12 mg/kg/injection, schedule: Q01DX009 (ip), vehicle: saline) 90 % of control; (dose: 0.51 mg/kg/injection, schedule: Q01DX009 (ip), vehicle: saline) 168 % of control; (dose: 0.52 mg/kg/injection, schedule: Q01DX009 (ip), vehicle: saline) 110 % of control; (dose: 1.02 mg/kg/injection, schedule: Q01DX009 (ip), vehicle: saline) 100 % of control; (dose: 1.1 mg/kg/injection, schedule: Q01DX009 (ip), vehicle: saline) 163 % of control. The T/C is, setting by setting: (dose: 1.17 mg/kg/injection, schedule: Q01DX009 (ip), vehicle: saline) 100 % of control; (dose: 1.56 mg/kg/injection, schedule: Q01DX009 (ip), vehicle: saline) 109 % of control; (dose: 1.65 mg/kg/injection, schedule: Q04DX003 (ip), vehicle: saline) 159 % of control; (dose: 2.1 mg/kg/injection, schedule: Q04DX003 (ip), vehicle: saline) 100 % of control; (dose: 2.34 mg/kg/injection, schedule: Q01DX009 (ip), vehicle: saline) 168 % of control.
For the compound `O=C(Nc1cccc2cccnc12)C12CC3CC(CC(C3)C1)C2`, the T/C by setting is: under setting [1], 96 % of control; under setting [2], 96 % of control; under setting [3], 100 % of control.
As to `COC(=O)C1C2CCC3C2C(C)(C)CCCC31C` (configuration not stated), the T/C by setting is: (dose: 25.0 mg/kg/injection, schedule: Q04DX003 (ip), vehicle: saline with Tween-80) 100 % of control; (dose: 50.0 mg/kg/injection, schedule: Q04DX003 (ip), vehicle: saline with Tween-80) 95 % of control; under setting [4], 104 % of control; under setting [5], 118 % of control.
Turning to `CCC1COC(=O)N1` (configuration not stated), the T/C is, setting by setting: (dose: 25.0 mg/kg/injection, schedule: Q04DX003 (ip), vehicle: saline) 109 % of control; under setting [6], 104 % of control; under setting [7], 95 % of control.
Turning to `CCCN(CCC)CCCOC(=O)c1ccc(N)cc1`, the T/C reads like this: (dose: 25.0 mg/kg/injection, schedule: Q01DX009 (ip), vehicle: saline) 100 % of control; (dose: 50.0 mg/kg/injection, schedule: Q01DX009 (ip), vehicle: saline) 96 % of control; under setting [6], 100 % of control; (dose: 100.0 mg/kg/injection, schedule: Q01DX009 (ip), vehicle: saline) 89 % of control; under setting [7], 95 % of control.
Consider `CC(=O)OC1CC2(O)C(CCC3(C)C(c4ccc(=O)oc4)CCC32O)C2(C)CCC(OC3OC(CO)C(O)C(O)C3O)C=C12` (configuration not stated), for which the T/C (dose: 125.0 micrograms/kg/injection, schedule: Q01DX010 (ip), vehicle: saline) was 90 % of control.
Take `COC(=O)c1cc(Cl)nc2nc(Cl)nc(Cl)c12`: the T/C is, setting by setting: (dose: 50.0 mg/kg/injection, schedule: Q01DX009 (ip), vehicle: DMSO) 114 % of control; (dose: 100.0 mg/kg/injection, schedule: Q01DX009 (ip), vehicle: DMSO) 112 % of control; (dose: 200.0 mg/kg/injection, schedule: Q01DX009 (ip), vehicle: DMSO) 102 % of control.
On to `CSc1cccc(NC(C)=O)c1`, for which the T/C is 95 % of control (dose: 100.0 mg/kg/injection, schedule: Q01DX009 (ip), vehicle: Klucel (hydroxypropylcellulose) (HPC)); 104 % of control under setting [4]; 100 % of control under setting [5]; 95 % of control (dose: 400.0 mg/kg/injection, schedule: Q01DX009 (ip), vehicle: Klucel (hydroxypropylcellulose) (HPC)); 109 % of control (dose: 400.0 mg/kg/injection, schedule: Q04DX003 (ip), vehicle: saline with Tween-80).
Turning to `O=[n+]1c2c(n([O-])c3ccccc31)-c1cccc3cccc-2c13`, the T/C is 95 % of control (dose: 25.0 mg/kg/injection, schedule: Q01DX010 (ip), vehicle: saline); 91 % of control (dose: 50.0 mg/kg/injection, schedule: Q01DX010 (ip), vehicle: saline); 91 % of control (dose: 100.0 mg/kg/injection, schedule: Q01DX010 (ip), vehicle: saline).
In the case of `O=[N+]([O-])c1ccc(/C=[N+](\[O-])CCO)o1`, the T/C reads like this: under setting [1], 111 % of control; under setting [2], 113 % of control; under setting [3], 111 % of control.
Regarding `CSc1nc(C)c(Br)c(Sc2nc(N)nc3nc[nH]c23)n1`, the T/C runs as follows: (dose: 66.0 mg/kg/injection, schedule: Q04DX003 (ip), vehicle: saline with Tween-80) 154 % of control; under setting [4], 150 % of control; (dose: 150.0 mg/kg/injection, schedule: Q04DX003 (ip), vehicle: saline with Tween-80) 150 % of control.
Consider `O=S(=O)(c1ccccc1)N1C2=CCCC3CCCCC23c2ccccc21` (configuration not stated), for which the T/C was 95 % of control (dose: 100.0 mg/kg/injection, schedule: Q04DX002 (ip), vehicle: saline with Tween-80); 92 % of control (dose: 200.0 mg/kg/injection, schedule: Q04DX002 (ip), vehicle: saline with Tween-80); 92 % of control (dose: 400.0 mg/kg/injection, schedule: Q04DX002 (ip), vehicle: saline with Tween-80).
Regarding `CCCCCCCCCSC(=S)N(C)NC(=O)c1ccccn1`, the T/C by setting is: under setting [1], 98 % of control; under setting [2], 98 % of control.
With `CCCCn1cnc2c(=S)nc[nH]c21`, the T/C is 100 % of control (dose: 15.0 mg/kg/injection, schedule: Q01DX010 (ip), vehicle: water); 100 % of control (dose: 16.0 mg/kg/injection, schedule: Q01DX010 (ip), vehicle: saline); 90 % of control (dose: 30.0 mg/kg/injection, schedule: Q01DX010 (ip), vehicle: water); 90 % of control and 95 % of control (dose: 32.0 mg/kg/injection, schedule: Q01DX010 (ip), vehicle: saline); 104 % of control and 113 % of control (dose: 64.0 mg/kg/injection, schedule: Q01DX010 (ip), vehicle: saline); 95 % of control and 104 % of control (dose: 128.0 mg/kg/injection, schedule: Q01DX010 (ip), vehicle: saline).
